Data as given in US20120252730A1, “PLATELET AGGREGATION INHIBITORS” (UNIVERSITY OF CHICAGO, priority 2009, published 2012).
Ends that are not written are not given here.

Legend:
[1] = test system: αIIbβ3 CHO K1 cells; experiment: Ac-GXGDSC peptide array cell adhesion, αIIbβ3 CHO K1 cells; format: cell-based, human; conditions: 0.5% peptide spots; 300 μM cRGDFG
Experimental: (§1) Cysteine-terminated peptides were immobilized onto maleimide-presenting SAMs by adding 40 μL of 1 mM peptide solution to the biochip and incubating at 37° C. for 1 hour. Substrates were rinsed with DIUF water and ethanol and dried under a stream of nitrogen. αIIbβ3 CHO K1 cells were detached from culture plates with 1 mM EGTA/2 mM EDTA in PBS (phosphate-buffered saline), rinsed with serum-free F-12K medium, centrifuged and resuspended in serum-free F-12K medium supplemented with cRGDFG (SEQ ID NO: 12) (300 μM) and 1× penicillin/streptomycin. After 15-minute of incubation, cells (200,000/mL) were added to substrates in 24-well culture plates. After 2 hour incubation at 37° C. and 5% CO2, media was exchanged for F-12K medium supplemented with 10% FBS, 1× penicillin/streptomycin and cRGDFG (SEQ ID NO: 12) (300 μM). After 2 hours, the substrates were washed gently with warm PBS, and adherent cells were immediately fixed with 4% formaldehyde for 30 minutes, visualized with a 20× objective of a Zeiss Axiovert 200 inverted microscope, and photographed. For cell adhesion assays mediated by Ac-GXGDSC (SEQ ID NO: 26), αIIbβ3 CHO K1 cells were incubated on a 5×4 circle (1 mm diameter) array for 1 hour with serum-free F-12K medium supplemented with cRGDFG (SEQ ID NO: 12) (300 μM) and 1× penicillin/streptomycin, followed by media exchange to F-12K medium supplemented with 10% FBS, 1× penicillin/streptomycin and cRGDFG (SEQ ID NO: 12) (300 μM. The substrates were washed with warm PBS, and adherent cells were immediately fixed and permeabilized with 4% formaldehyde and 0.5% Triton-X for 30 minutes. Fixed cells were stained with DAPI, visualized and photographed with a 20× objective as described. The number of adherent cells per field of view was counted using Image J software. Cells were counted in at least three fields for each circle, and each experiment was repeated 3 times. The degree of adhesion is reported as a percentage of cells that adhere relative to control experiments with the peptide Ac-GRGDSC (SEQ ID NO: 28).
To further assay the binding of peptide ligands to the […] integrin for XGD peptide ligands, an array was used to assess the adhesion of cells to peptides having the arginine residue substituted with each amino acid other than cysteine (e.g., A, D, E, F, G, H, I, K, L, M, N, P, Q, R, S, T, V, W, and Y). The library of Ac-GXGDSC (SEQ ID NO: 26) peptides was synthesized and immobilized in an array with each peptide occupying a 1 mm diameter region of the monolayer (FIG. 61). A suspension of αIIbβ3 CHO K1 cells was applied to the entire array and cells were allowed to attach to regions presenting the various peptides. The substrates were then rinsed and stained with DAPI, and the cells were counted to determine the relative efficiency of cell attachment to peptides in the library. […] Substitution with leucine and isoleucine were also active, though at a lower level.

[2] = test system: αIIbβ3 CHO K1 cells; experiment: Cell adhesion inhibition assay with soluble peptides; format: cell-based, human
Experimental: (§2) Suspensions of αIIbβ3 CHO K1 cells (100,000/mL) were incubated with cRGDFG (SEQ ID NO: 12) (300 μM) in serum-free F-12K medium with 1 mg/mL BSA (bovine serum albumin) and 1× penicillin/streptomycin for 15 minutes at 37° C. and 5% CO2. These suspensions were then supplemented with soluble peptides at concentrations ranging from 1 pM to 100 μM and further incubated for 15 minutes at 37° C. and 5% CO2. Cells were then added to monolayers and incubated at 37° C. and 5% CO2 for 2 hours, then media was exchanged for F-12K medium supplemented with 10% FBS and 1× penicillin/streptomycin. The substrates were further incubated for 2 hours. The substrates were washed gently with warm PBS, and adherent cells were immediately fixed and permeabilized with 4% formaldehyde and 0.5% Triton-X for 30 minutes. Fixed cells were stained with DAPI, visualized and photographed with a 20× as described previously. The number of adherent cells per field of view was counted using Image J. Cells were counted in at least five fields for each substrate, and each experiment was repeated 3 times. The degree of inhibition is reported as a percentage of cells that adhere relative to control experiments in the absence of soluble peptide.
To verify that the two peptides interact with the same site on αIIbβ3, it was determined whether the peptides GRGDS (SEQ ID NO: 4), HHLGGAKQAGDV (SEQ ID NO: 1) and AGDV (SEQ ID NO: 22), in soluble form, could block the attachment of cells to the monolayers presenting these ligands. In these experiments identical suspensions of cells (100,000/mL) were first incubated in serum-free F-12K medium supplemented with cRGDFG (SEQ ID NO: 12) (300 μM) and with the soluble peptides in concentrations ranging from 1 pM to 100 μM and then applied the mixtures to monolayers presenting either the GRGDSC (SEQ ID NO: 11), HHLGGAKQAGDVC (SEQ ID NO: 21), or AGDVC (SEQ ID NO: 17) peptide (SEQ ID NO: 17) (FIG. 5). Cells were allowed to attach for 2 hours, after which media was exchanged to 10% FBS F-12K medium (supplemented with cRGDFG (SEQ ID NO: 12)) and cultured for an additional 2 hours. The slides were then rinsed and nuclei were stained with DAPI to facilitate counting of the adherent cells. […] This experiment again verifies that the cell attachment is mediated by the immobilized peptide alone and not non-specific interactions between other cell-surface molecules and the monolayer.

[3] = test system: αIIbβ3 CHO K1 cells; experiment: Cell adhesion assay: αIIbβ3 CHO K1 cells on SAMs presenting immobilized peptides; format: cell-based, human; conditions: 0.5% peptide SAM; in presence of 300 μM cRGDFG
Experimental: Monolayers were prepared as described (Houseman, et al., 2003). Glass coverslips were sonicated for 30 minutes in deionized ultrafiltered (DIUF) water and then 30 minutes in ethanol and then dried under a stream of nitrogen. Titanium (4 nm) and then gold (29 nm) were evaporated onto the coverslips using an electron beam evaporator (Boc Edwards) at a rate of 0.05-0.10 nm/s and at a pressure of 1 μTorr. The gold-coated coverslips were immersed in an ethanolic solution of maleimide-terminated disulfide (1%) and tri(ethylene glycol)-terminated disulfide (99%) overnight at room temperature. The total disulfide concentration was 1 mM. The substrates were washed with DIUF water, ethanol and then dried under a stream of nitrogen.
The pcDNA3.1 vectors that express human αIIb or β3, respectively, have been described previously (see e.g., Litvinov et al. (2006) Biochemistry, 45: 4957-4964). CHO K1, BHK 21 and HT1080 cells were purchased from ATCC. All CHO cells were cultured at 37° C. and 5% CO2 using F12K medium supplemented with 10% FBS and pen/strep. […] CHO K1 cells were transfected with αIIb and β3 cDNA with FuGENE following the supplier's protocol. Transfected cells were selected with 1 mg/mL zeocin and 1 mg/mL geneticin.
as §1
Monolayers were prepared that presented a mixture of maleimide groups and tri(ethylene glycol) groups with the former present at a density of 0.5% (relative to total alkanethiolate). The monolayers were treated with cysteine-terminated peptides to immobilize the ligands (FIG. 1A). In each case mass spectrometry was used to verify immobilization of the peptides in high yield (Su et al., 2002).
The adhesion and spreading of αIIbβ3 CHO K1 cells to monolayers presenting GRGDSC (SEQ ID NO: 11), HHLGGAKQAGDVC (SEQ ID NO: 21) and a mixture of both peptides was compared. […]

[4] = biological target: T1, human αIIbβ3 integrin on transfected CHO K1 cells (human, UniProt P08514 32-1039; P05106 27-788); experiment: soluble peptide (1 pM to 100 µM) inhibits adhesion of αIIbβ3 CHO K1 cells to peptide monolayers
T1 construct: whole, on cells; CHO K1 cells transfected with human αIIb and β3 cDNA; about 30% of the cells expressed the receptor; also called platelet receptor; platelet integrin
Experimental: as §2, with “CO₂.” for “CO2.”, “CO₂” for “CO2”
To verify that the two peptides interact with the same site on αIIbβ3, it was determined whether the peptides GRGDS (SEQ ID NO: 4), […] (SEQ ID NO: 1) and AGDV (SEQ ID NO: 22), in soluble form, could block the attachment of cells to the monolayers presenting these ligands. In these experiments identical suspensions of cells (100,000/mL) were first incubated in serum-free F-12K medium supplemented with cRGDFG (SEQ ID NO: 12) (300 μM) and with the soluble peptides in concentrations ranging from 1 pM to 100 μM and then applied the mixtures to monolayers presenting either the GRGDSC (SEQ ID NO: 11), […] (SEQ ID NO: 21), or AGDVC (SEQ ID NO: 17) peptide (SEQ ID NO: 17) (FIG. 5). Cells were allowed to attach for 2 hours, after which media was exchanged to 10% FBS F-12K medium (supplemented with cRGDFG (SEQ ID NO: 12)) and cultured for an additional 2 hours. […]

[5] = monolayers presenting GRGDSC, HHLGGAKQAGDVC or AGDVC, soluble peptide 1 pM to 100 μM, 300 μM cRGDFG

Row | Molecule | cell adhesion on Ac-GXGDSC array relative to Ac-GRGDSC [1] | block of cell attachment by soluble peptide [2, 5] | other results
1 | Ac-GAGDSC (Ac-GAGDSC-NH2) | mediated αIIbβ3 CHO K1 cell adhesion |  | 
2 | AGDV (completely synthesized peptide) |  | could block cell attachment to monolayers presenting any of the three peptides | block of cell attachment by soluble peptide ([2]; monolayer presenting GRGDS): blocked cell attachment
3 | GHHLGGADQAGKV (scrambled peptide) |  | had no effect on cell adhesion | 
4 | Ac-GLGDSC (Ac-GLGDSC-NH2) | mediated αIIbβ3 CHO K1 cell adhesion |  | 
5 | HHLGGAKQAGDV (not fully specified (C-terminus)) |  | could block cell attachment to monolayers presenting any of the three peptides | block of cell attachment by soluble peptide ([2]; monolayer presenting GRGDS): blocked cell attachment
6 | Ac-GKGDSC (Ac-GKGDSC-NH2) | mediated αIIbβ3 CHO K1 cell adhesion |  | 
7 | Ac-GGGDSC (Ac-GGGDSC-NH2) | mediated αIIbβ3 CHO K1 cell adhesion |  | 
8 | Ac-GVGDSC (Ac-GVGDSC-NH2) | mediated αIIbβ3 CHO K1 cell adhesion |  | 
9 | GGRDGSC (scrambled peptide) | did not adhere |  | adhesion of αIIbβ3 CHO K1 cells to monolayer presenting the peptide [3]: lack of cell attachment
10 | GRGDS (synthesized peptide inhibitor) |  | could block cell attachment to monolayers presenting any of the three peptides | 
11 | GADGV (scrambled peptide) |  | had no effect on cell adhesion | 
12 | Ac-GIGDSC (Ac-GIGDSC-NH2) | mediated αIIbβ3 CHO K1 cell adhesion |  | 
13 | GGRDGS (scrambled peptide) |  | had no effect on cell adhesion | 
14 | HHLGGAKQAGDV-NH2 (Synthetic peptide; also called γ peptide) [HHLGGAKQAGDV (SEQ ID NO: 1), soluble peptide] |  |  | binding result [4]: binds
15 | GRGDS-NH2 (also called soluble GRGDS) [GRGDS (SEQ ID NO: 4), soluble peptide] |  |  | binding result [4]: binds
16 | AGDV-NH2 (also called soluble AGDV) [AGDV (SEQ ID NO: 22), soluble peptide] |  |  | binding result [4]: binds
